According to ChEMBL document CHEMBL1133867, “Design, synthesis, and SAR of heterocycle-containing antagonists of the human CCR5 receptor for the treatment of HIV-1 infection” (Bioorg Med Chem Lett, 2001):
pIC50: −log10 of the molar value. Blank lines part the entries; values can stand above or below the molecule they belong to.

Columns and labels:
[1] = molecular target: T1, C-C chemokine receptor type 5 (Homo sapiens, UniProt P51681); assay: Binding affinity against C-C chemokine receptor type 5 stably expressed in Chinese hamster ovary (CHO) cells using [125I]-MIP-1 alpha as the radioligand; type: cell-based
T1 sequence (P51681 whole entry): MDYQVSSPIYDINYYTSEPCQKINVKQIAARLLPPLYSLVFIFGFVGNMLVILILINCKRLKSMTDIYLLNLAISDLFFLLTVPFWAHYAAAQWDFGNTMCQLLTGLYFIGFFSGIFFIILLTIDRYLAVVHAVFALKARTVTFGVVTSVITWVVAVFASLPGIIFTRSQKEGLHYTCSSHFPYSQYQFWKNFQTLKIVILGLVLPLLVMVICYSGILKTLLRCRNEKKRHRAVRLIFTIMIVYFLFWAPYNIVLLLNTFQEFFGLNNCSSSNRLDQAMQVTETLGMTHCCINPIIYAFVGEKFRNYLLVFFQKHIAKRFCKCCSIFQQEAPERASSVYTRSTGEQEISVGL

[2] = molecular target: T2, C-C chemokine receptor type 1 (Homo sapiens, UniProt P32246); assay: Compound was evaluated for inhibitory activity against C-C chemokine receptor type 1
T2 sequence (P32246 whole entry): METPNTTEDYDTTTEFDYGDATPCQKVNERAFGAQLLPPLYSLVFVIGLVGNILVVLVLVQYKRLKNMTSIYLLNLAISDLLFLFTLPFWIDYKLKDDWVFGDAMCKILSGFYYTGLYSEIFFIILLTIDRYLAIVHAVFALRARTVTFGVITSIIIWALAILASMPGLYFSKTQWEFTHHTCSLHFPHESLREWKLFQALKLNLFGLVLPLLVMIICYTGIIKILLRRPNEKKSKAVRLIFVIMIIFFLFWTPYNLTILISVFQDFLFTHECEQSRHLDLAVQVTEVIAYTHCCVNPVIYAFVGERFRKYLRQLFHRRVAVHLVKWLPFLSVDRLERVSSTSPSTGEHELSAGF

[3] = molecular target: C-X-C chemokine receptor type 4 (Homo sapiens, UniProt P61073); assay: Compound was evaluated for its inhibitory activity against C-X-C chemokine receptor type 4
Sequence of C-X-C chemokine receptor type 4 (P61073 whole entry): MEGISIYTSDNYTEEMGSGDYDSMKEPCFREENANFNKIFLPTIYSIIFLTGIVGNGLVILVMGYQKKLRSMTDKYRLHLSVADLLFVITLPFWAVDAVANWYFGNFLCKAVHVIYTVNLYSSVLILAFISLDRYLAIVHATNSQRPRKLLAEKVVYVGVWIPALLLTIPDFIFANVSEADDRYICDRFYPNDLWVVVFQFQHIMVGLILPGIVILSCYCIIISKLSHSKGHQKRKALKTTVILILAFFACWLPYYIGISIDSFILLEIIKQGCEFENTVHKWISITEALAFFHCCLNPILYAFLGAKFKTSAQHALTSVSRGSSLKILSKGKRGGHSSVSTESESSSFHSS

[4] = molecular target: C-C chemokine receptor type 2 (Homo sapiens, UniProt P41597); assay: Compound was evaluated for its inhibitory activity against C-C chemokine receptor type 2
Sequence of C-C chemokine receptor type 2 (P41597 whole entry): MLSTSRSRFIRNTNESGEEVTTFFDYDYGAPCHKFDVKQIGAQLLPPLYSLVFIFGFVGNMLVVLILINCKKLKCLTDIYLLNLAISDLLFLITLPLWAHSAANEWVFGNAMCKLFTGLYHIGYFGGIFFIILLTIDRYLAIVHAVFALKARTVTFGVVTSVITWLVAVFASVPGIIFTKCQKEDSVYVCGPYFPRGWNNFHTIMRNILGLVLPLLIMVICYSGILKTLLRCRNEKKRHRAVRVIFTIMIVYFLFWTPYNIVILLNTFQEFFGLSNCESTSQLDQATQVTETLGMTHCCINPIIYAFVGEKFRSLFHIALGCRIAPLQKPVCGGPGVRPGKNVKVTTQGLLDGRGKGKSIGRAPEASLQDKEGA

[5] = molecular target: T3, C-C chemokine receptor type 3 (Homo sapiens, UniProt P51677); assay: Compound was evaluated for its inhibitory activity against C-C chemokine receptor type 3
T3 sequence (P51677 whole entry): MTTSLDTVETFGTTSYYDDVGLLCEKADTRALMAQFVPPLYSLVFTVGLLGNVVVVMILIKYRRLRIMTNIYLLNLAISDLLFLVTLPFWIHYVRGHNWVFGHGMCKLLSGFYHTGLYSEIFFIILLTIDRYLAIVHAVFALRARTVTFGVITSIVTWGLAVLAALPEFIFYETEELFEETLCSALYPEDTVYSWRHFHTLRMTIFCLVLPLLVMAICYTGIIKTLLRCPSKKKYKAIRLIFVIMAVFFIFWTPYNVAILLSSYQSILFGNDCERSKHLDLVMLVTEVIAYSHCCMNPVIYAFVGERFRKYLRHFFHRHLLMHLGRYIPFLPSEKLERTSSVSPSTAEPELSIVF

[6] = molecular target: T4, C-C chemokine receptor type 4 (Homo sapiens, UniProt P51679); assay: Compound was evaluated for its inhibitory activity against C-C chemokine receptor type 4
T4 sequence (P51679 whole entry): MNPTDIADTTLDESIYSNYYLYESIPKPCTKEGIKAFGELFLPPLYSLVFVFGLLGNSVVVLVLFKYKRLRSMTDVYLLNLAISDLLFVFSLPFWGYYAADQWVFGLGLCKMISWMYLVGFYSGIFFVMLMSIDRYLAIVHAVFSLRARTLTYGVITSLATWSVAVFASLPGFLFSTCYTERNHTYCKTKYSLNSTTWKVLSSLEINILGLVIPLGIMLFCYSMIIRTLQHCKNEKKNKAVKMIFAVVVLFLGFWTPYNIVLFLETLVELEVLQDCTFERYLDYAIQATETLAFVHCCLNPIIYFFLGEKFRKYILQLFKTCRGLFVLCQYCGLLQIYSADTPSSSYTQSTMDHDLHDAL

[7] = Clearance in rat.; type: ADME, organism-based; settings: in vivo
[8] = Oral bioavailability in rat; type: ADME, organism-based; settings: in vivo
HeLa = assay: Antiviral activity against HeLa Magi cells expressing both CXCR4 and CCR5 in a 48 hr single cycle HIV (BAL) infection assay; type: functional; settings: Homo sapiens
[9] = molecular target: T1, C-C chemokine receptor type 5; assay: Binding affinity against human CCR5 receptor stably expressed in Chinese hamster ovary (CHO) cells using [125I]-MIP-1 alpha as the radioligand; type: cell-based

SMILES: C=CCN(C(=O)OCc1ccc([N+](=O)[O-])cc1)C1CCN(CCC(Cn2nnc(-c3ccccc3)n2)c2ccccc2)CC1 (stereo not drawn)
pIC50 [1]: 6.95

SMILES: C=CCN(C(=O)OCc1ccccc1)C1CCN(CCC(Cn2c(CC)nc3ccccc32)c2ccccc2)CC1 (stereo not drawn)
pIC50 [2]: < 6.00
pIC50 [3]: < 6.00
pIC50 [4]: < 6.00
pIC50 [1]: 6.61
pIC50 [5]: < 6.00
pIC50 [6]: < 6.00

SMILES: C=CCN(C(=O)OCc1ccc([N+](=O)[O-])cc1)C1CCN(CCC(Cn2cnc([N+](=O)[O-])c2)c2ccccc2)CC1 (stereo not drawn)
pIC50 [1]: 7.82

SMILES: C=CCN(C(=O)OCc1ccc([N+](=O)[O-])cc1)C1CCN(CCC(Cn2cncn2)c2ccccc2)CC1 (stereo not drawn)
pIC50 [1]: 7.55

SMILES: C=CCN(C(=O)OCc1ccccc1)C1CCN(CCC(C)(CN2C(=O)N[C@H](Cc3c[nH]c4ccccc34)C2=O)c2ccccc2)CC1 (stereo partly drawn)
clearance [7]: 84 mL/min/kg
bioavailability [8]: 1%

SMILES: C=CCN(C(=O)OCc1ccccc1)C1CCN(CCC(C)(c2ccccc2)C2Nc3ccccc3S(=O)(=O)N2)CC1 (single isomer, unassigned)
pIC50 [1]: 7.26

SMILES: C=CCN(C(=O)OCc1ccc([N+](=O)[O-])cc1)C1CCN(CCC(Cn2c(CC)nc3ccccc32)c2ccccc2)CC1 (stereo not drawn)
pIC50 [2]: < 6.00
pIC50 [3]: < 6.00
IC90 (HeLa): 3000 nM
pIC50 [4]: < 6.00
pIC50 [1]: 7.32
pIC50 [5]: < 6.00
pIC50 [6]: < 6.00

SMILES: CN(C[C@@H](CCN1CCC2(CC1)C[S+]([O-])c1ccccc12)c1cccc(Cl)c1)S(=O)(=O)c1ccccc1 (stereo partly drawn)
pIC50 [9]: 7.46

SMILES: C=CCN(C(=O)OCc1ccccc1)C1CCN(CCC(C)(Cn2cnc3ccccc32)c2ccccc2)CC1 (stereo not drawn)
pIC50 [2]: < 6.00
pIC50 [3]: < 6.00
pIC50 [4]: < 6.00
pIC50 [1]: 6.95
pIC50 [5]: < 6.00
pIC50 [6]: < 6.00

SMILES: C=CCN(C(=O)OCc1ccc([N+](=O)[O-])cc1)C1CCN(CCC(Cn2nnnc2-c2ccccc2)c2ccccc2)CC1 (stereo not drawn)
pIC50 [1]: 6.47

Results, then the molecule that gave them:

pIC50 [1]: 8.00
SMILES: C=CCN(C(=O)OCc1ccc([N+](=O)[O-])cc1)C1CCN(CCC(C)(c2ccccc2)C2c3ccccc3C(=O)N2CC)CC1 (single isomer, unassigned; form 2)

pIC50 [1]: 7.82
SMILES: C=CCN(C(=O)OCc1ccc([N+](=O)[O-])cc1)C1CCN(CCC(Cn2ncc3ccccc32)c2ccccc2)CC1 (stereo not drawn)

pIC50 [1]: 7.74
SMILES: C=CCN(C(=O)OCc1ccccc1)C1CCN(CCC(C)(c2ccccc2)C2Nc3ccccc3S(=O)(=O)N2)CC1 (stereo in doubt)

pIC50 [1]: 7.74
SMILES: C=CCN(C(=O)OCc1ccc([N+](=O)[O-])cc1)C1CCN(CCC(C)(c2ccccc2)C2c3ccccc3C(=O)N2CC)CC1 (single isomer, unassigned; form 1)

pIC50 [2]: < 6.00
pIC50 [3]: < 6.00
IC90 (HeLa): > 3000 nM
pIC50 [4]: < 6.00
pIC50 [1]: 7.60
pIC50 [5]: < 6.00
pIC50 [6]: < 6.00
SMILES: C=CCN(C(=O)OCc1ccccc1)C1CCN(CCC(Cn2cnc3ccccc32)c2ccccc2)CC1 (stereo not drawn)

pIC50 [1]: 7.80
SMILES: C=CCN(C(=O)OCc1ccc([N+](=O)[O-])cc1)C1CCN(CCC(Cn2cnc(Cl)c2Cl)c2ccccc2)CC1 (stereo not drawn)

pIC50 [1]: 7.57
SMILES: C=CCN(C(=O)OCc1ccc([N+](=O)[O-])cc1)C1CCN(CCC(Cn2cc3ccccc3n2)c2ccccc2)CC1 (stereo not drawn)

pIC50 [1]: 7.82
SMILES: C=CCN(C(=O)OCc1ccc([N+](=O)[O-])cc1)C1CCN(CCC(Cn2cnc(CC#N)c2)c2ccccc2)CC1 (stereo not drawn)

pIC50 [1]: 7.64
SMILES: C=CCN(C(=O)OCc1ccc([N+](=O)[O-])cc1)C1CCN(CCC(Cn2cnc(-c3ccccc3)c2)c2ccccc2)CC1 (stereo not drawn)

pIC50 [2]: < 6.00
clearance [7]: 49 mL/min/kg
bioavailability [8]: 14%
pIC50 [3]: < 6.00
IC90 (HeLa): 1000 nM
pIC50 [4]: < 6.00
pIC50 [1]: 8.40
pIC50 [5]: < 6.00
pIC50 [6]: < 6.00
SMILES: C=CCN(C(=O)OCc1ccc([N+](=O)[O-])cc1)C1CCN(CCC(Cn2cnc3ccccc32)c2ccccc2)CC1 (stereo not drawn)

pIC50 [2]: < 6.00
pIC50 [3]: < 6.00
IC90 (HeLa): 1000 nM
pIC50 [4]: < 6.00
pIC50 [1]: 8.00
pIC50 [5]: < 6.00
pIC50 [6]: < 6.00
SMILES: C=CCN(C(=O)OCc1ccc([N+](=O)[O-])cc1)C1CCN(CCC(C)(Cn2cnc3ccccc32)c2ccccc2)CC1 (stereo not drawn)
